Test results as given in US6747021B2, “Cryptophycin compound” (Eli Lilly and Company, priority 2000, dated 2004).
Read-outs that look alike come from different tables or passages of the source.

Assays:
Type in all cases: in vivo
[1] = system: MAMMARY ADENOCARCINOMA-16/C/Adr; test: Early stage murine mammary adenocarcinoma-16/C/Adr subcutaneous tumor assay; conditions: IV 20 mg/kg/inj days 1,3,5,7,9; total dose 100 mg/kg; C3H female mice
From the text: (§1) Inhibition of tumors transplanted into mice is an accepted procedure for studying the efficacy of antitumor agents (Corbett, et al., In vivo Methods for Screening and Preclinical Testing; Use of rodent solid tumors for drug discovery., In: Anticancer Drug Development Guide: Preclinical Screening, Clinical Trials, and Approval, B. Teicher (ed), Humana Press Inc., Totowa, N.J., Chapter 5, pages 75-99 (1997); (Corbett, et al., Int. J. Pharmacog., 33, Supplement, 102-122 (1995)). Murine tumors or human xenographs were implanted essentially as described by Corbett in In vivo Methods for Screening and Preclinical Testing; Use of rodent solid tumors for drug discovery. Briefly, the murine tumor or human xenograph was implanted subcutaneously using either 12-gauge trocar implants or counted number of cells. The location for the trocar insertion is midway between the axillary and inguinal region along the side of the mouse. The trocar is slipped approximately ¾ of an inch subcutaneously up toward the axilla before discharging the tumor fragment, and pinching the skin as the trocar is removed. Alternatively, human tumor cells prepared from a […] of donor tumors (5×10^6 cells) were implanted subcutaneously in a hind-leg of a male or female nude mouse (Charles River). Either a test compound in vehicle or vehicle alone was administered by intravenous bolus injection (iv), intraperitoneal injection (ip), or oral gavage (po). Each treatment group, as well as a group of untreated control animals, consisted of five animals per group in each experiment. Subcutaneous tumor response was monitored by tumor volume measurement performed twice each week over the course of the experiment (60-120 days). Body weights were taken as a general measure of toxicity. The subcutaneous tumor data were analyzed by determining the median tumor weight for each treatment group over the course of the experiment and calculating the tumor growth delay as the difference in days for the treatment versus the control tumors to reach a volume of either 500 or 1000 mm^3.
(§2) Cryptophycin-309 (309) was tested against a variety of murine and human tumors substantially as described supra. Cryptophycin-55 glycinate (55-GLY), Taxol, and Adriamycin (Adria) were also included in certain tests for purposes of comparison. Cryptophycin 55 glycinate is known in the art (WO 98/08505, Example 9) and has the following structure: [drawing 9]
(§3) Tumor Weight(mg)=(a×b^2)/2 where a=tumor length (mm) and b=tumor width (mm).
(§4) Tumor Growth Delay=T−C where T is the median time (days) required for the treatment group tumors to reach a predetermined size, and C is the median time (days) for the control group tumors to reach the same size. Tumor-free survivors are excluded from this calculation, and are tabulated separately (Tumor Free).
(§5) Log Kill=Tumor Growth Delay/(3.32)(Td)
(§6) where Tumor Growth Delay is as previously defined and Td is tumor volume doubling time (days), estimated from the best fit straight line from a log-linear growth plot of the control group of tumors in exponential growth (100-800 mg range)
(§7) %T/C mass—The treatment and control groups are measured when the control group tumors reach approximately 700 to 1200 mg in size (median group). The median tumor weight of each group is determined (including zeros). The T/C value in percent is an indication of antitumor effectiveness. A T/C≦42% is considered significant antitumor activity. A T/C<10% is considered to indicate highly significant antitumor activity.
(§8) Body Weight Loss Nadir—A body weight loss nadir (mean of group) of greater than 20% or drug deaths greater than 20% are considered to indicate an excessively toxic dosage in single course trials.
(§9) Activity Rating—the Activity Rating is derived from the Log Kill according to the following table: […]

HUMAN COLON ADEN[…]-116 = test: Early stage human colon adenocarcinoma HCT-116 xenograft assay; conditions: Balb/C SCID female mice
From the text: as §1, §2, §3, §4, §5, §6, §7, §8, §9

[2] = system: HUMAN COLON ADENOCARCINOMA 15; conditions: Balb/C SCID female mice
From the text: as §1, §2, §3, §4, §5, §6, §7, §8, §9

[3] = IV 16.5 mg/kg/inj days 3,5,7,9,11, total dose 82.5 mg/kg
[4] = IV 25 mg/kg/inj days 3,5,7,9,11, total dose 125 mg/kg
[5] = IV 38 mg/kg/inj days 3,5,7,9,11, total dose 190 mg/kg

COc1ccc(C[C@H]2NC(=O)/C=C/C[C@@H]([C@H](C)[C@@H](OC(=O)CN)[C@@H](Cl)c3ccccc3)OC(=O)[C@H](CC(C)(C)C)OC(=O)[C@H](C)CNC2=O)cc1Cl [Cryptophycin 309, Cryptophycin-309]
% T/C MASS [1]: 0%
ACTIVITY RATING [1]: ++++ (>2.8)
DRUG DEATHS [1]: 0/5
GROWTH DELAY [1]: 11 days
LOG KILL [1]: 3.0
MEDIAN TUMOR WEIGHT [1]: 0 mg
% T/C MASS (HUMAN COLON ADEN[…]-116; [3]): 0%
ACTIVITY RATING (HUMAN COLON ADEN[…]-116; [3]): +++ (2.0-2.8)
DRUG DEATHS (HUMAN COLON ADEN[…]-116; [3]): 0/5
GROWTH DELAY (HUMAN COLON ADEN[…]-116; [3]): 22 days
LOG KILL (HUMAN COLON ADEN[…]-116; [3]): 2.65
MEDIAN TUMOR WEIGHT (HUMAN COLON ADEN[…]-116; [3]): 0 mg
% T/C MASS (HUMAN COLON ADEN[…]-116; [4]): 0%
ACTIVITY RATING (HUMAN COLON ADEN[…]-116; [4]): ++++ (>2.8)
DRUG DEATHS (HUMAN COLON ADEN[…]-116; [4]): 0/5
GROWTH DELAY (HUMAN COLON ADEN[…]-116; [4]): 29.5 days
LOG KILL (HUMAN COLON ADEN[…]-116; [4]): 3.6
MEDIAN TUMOR WEIGHT (HUMAN COLON ADEN[…]-116; [4]): 0 mg
% T/C MASS (HUMAN COLON ADEN[…]-116; [5]): 0%
ACTIVITY RATING (HUMAN COLON ADEN[…]-116; [5]): ++++ (>2.8)
DRUG DEATHS (HUMAN COLON ADEN[…]-116; [5]): 0/5
GROWTH DELAY (HUMAN COLON ADEN[…]-116; [5]): 34 days
LOG KILL (HUMAN COLON ADEN[…]-116; [5]): 4.1
MEDIAN TUMOR WEIGHT (HUMAN COLON ADEN[…]-116; [5]): 0 mg
% T/C MASS [2, 3]: 11%
ACTIVITY RATING [2, 3]: +++ (2.0-2.8)
DRUG DEATHS [2, 3]: 0/5
GROWTH DELAY [2, 3]: 24.5 days
LOG KILL [2, 3]: 2.5
MEDIAN TUMOR WEIGHT [2, 3]: 126 mg
% T/C MASS [2, 4]: 0%
ACTIVITY RATING [2, 4]: ++++ (>2.8)
DRUG DEATHS [2, 4]: 0/5
GROWTH DELAY [2, 4]: 31.5 days
LOG KILL [2, 4]: 3.2
MEDIAN TUMOR WEIGHT [2, 4]: 0 mg
% T/C MASS [2, 5]: 0%
ACTIVITY RATING [2, 5]: ++++ (>2.8)
DRUG DEATHS [2, 5]: 0/5
GROWTH DELAY [2, 5]: 32.5 days
LOG KILL [2, 5]: 3.3
MEDIAN TUMOR WEIGHT [2, 5]: 0 mg
